Columns and labels:
Experiment in all cases: relative viability (nuclei count vs DMSO), 5 days (fraction); higher = more cells survive
NCI-H650 = system: NCI-H650
Outline: (§1)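 Cells from lung cancer lines were seeded into 1536-well plates and, one day later, dosed by pin tool. Treatments were either a single drug or a fixed dose of an anchor drug with five library-drug doses (not always all listed) in √10 steps. After 5 days, nuclei were stained in a one-step fixation (final 0.05% Triton X-100, 1% formaldehyde, 1 ug/ml Hoechst) and counted on 4× images, and relative viability is the treated-to-vehicle nuclei ratio, as the median of duplicate plates.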

LCLC-97TM1 = system: LCLC-97TM1
Outline: as §1

RERF-LC-KJ = system: RERF-LC-KJ
Outline: as §1

NCI-H2087 = system: NCI-H2087
Outline: as §1

EPLC-272H = system: EPLC-272H
Outline: as §1

NCI-H23 = system: NCI-H23
Outline: as §1

NCI-H322M = system: NCI-H322M
Outline: as §1

LC-2-ad = system: LC-2-ad
Outline: as §1

H3255 = system: H3255
Outline: as §1

201T = system: 201T
Outline: as §1

HCC-78 = system: HCC-78
Outline: as §1

NCI-H647 = system: NCI-H647
Outline: as §1

COR-L 105 = system: COR-L 105
Outline: as §1

NCI-H2405 = system: NCI-H2405
Outline: as §1

NCI-H2347 = system: NCI-H2347
Outline: as §1

NCI-H1666 = system: NCI-H1666
Outline: as §1

NCI-H2126 = system: NCI-H2126
Outline: as §1

ChaGo-K-1 = system: ChaGo-K-1
Outline: as §1

NCI-H1915 = system: NCI-H1915
Outline: as §1

HCC-827 = system: HCC-827
Outline: as §1

NCI-H520 = system: NCI-H520
Outline: as §1

PC-14 = system: PC-14
Outline: as §1

NCI-H661 = system: NCI-H661
Outline: as §1

In the case of `Clc1ccc(Nc2nnc(Cc3ccncc3)c3ccccc23)cc1` [Vatalanib] + CC(C)C[C@H](NC(=O)[C@H](Cc1ccccc1)NC(=O)c1cnccn1)B(O)O [Bortezomib] (partner 0.002 µM), the relative viability (NCI-H650; first compound 0.04 µM) is reported as 0.891, the relative viability (NCI-H650; first compound 0.1265 µM) is reported as 0.736 and the relative viability (NCI-H650; first compound 1.265 µM) is reported as 0.6. It also gave a relative viability (NCI-H650; first compound 4 µM) of 0.812, a relative viability (LCLC-97TM1; first compound 0.04 µM) of 0.529 and a relative viability (LCLC-97TM1; first compound 0.1265 µM) of 0.523. The relative viability (LCLC-97TM1; first compound 0.4 µM) was 0.528, the relative viability (LCLC-97TM1; first compound 1.265 µM) was 0.31 and the relative viability (LCLC-97TM1; first compound 4 µM) was 0.769. It also gave a relative viability (RERF-LC-KJ; first compound 0.04 µM) of 1.05, a relative viability (RERF-LC-KJ; first compound 0.1265 µM) of 1.1 and a relative viability (RERF-LC-KJ; first compound 0.4 µM) of 0.958. For the same molecule, the relative viability (RERF-LC-KJ; first compound 1.265 µM) was 0.904, the relative viability (RERF-LC-KJ; first compound 4 µM) was 0.969 and the relative viability (NCI-H2087; first compound 0.04 µM) was 1.05. It also gave a relative viability (NCI-H2087; first compound 0.1265 µM) of 0.744, a relative viability (NCI-H2087; first compound 0.4 µM) of 0.92 and a relative viability (NCI-H2087; first compound 1.265 µM) of 0.917. It also gave a relative viability (NCI-H2087; first compound 4 µM) of 0.753, a relative viability (EPLC-272H; first compound 0.04 µM) of 1.08 and a relative viability (EPLC-272H; first compound 0.1265 µM) of 0.93. For the same molecule, the relative viability (EPLC-272H; first compound 0.4 µM) was 0.843, the relative viability (EPLC-272H; first compound 1.265 µM) was 0.971 and the relative viability (EPLC-272H; first compound 4 µM) was 0.982. The relative viability (NCI-H23; first compound 0.04 µM) was 0.846, the relative viability (NCI-H23; first compound 0.1265 µM) was 1.03 and the relative viability (NCI-H23; first compound 0.4 µM) was 1.14. For the same molecule, the relative viability (NCI-H23; first compound 1.265 µM) was 0.865, the relative viability (NCI-H23; first compound 4 µM) was 1.08 and the relative viability (NCI-H322M; first compound 0.04 µM) was 1.19. The relative viability (NCI-H322M; first compound 0.1265 µM) was 1.31, the relative viability (NCI-H322M; first compound 0.4 µM) was 1.33 and the relative viability (NCI-H322M; first compound 1.265 µM) was 1.28. The relative viability (NCI-H322M; first compound 4 µM) was 1.08, the relative viability (LC-2-ad; first compound 0.04 µM) was 0.987 and the relative viability (LC-2-ad; first compound 0.1265 µM) was 1.01. The relative viability (LC-2-ad; first compound 0.4 µM) was 1.17, the relative viability (LC-2-ad; first compound 1.265 µM) was 1 and the relative viability (LC-2-ad; first compound 4 µM) was 0.952. For the same molecule, the relative viability (H3255; first compound 0.04 µM) was 0.627, the relative viability (H3255; first compound 0.1265 µM) was 0.764 and the relative viability (H3255; first compound 0.4 µM) was 0.494. It also gave a relative viability (H3255; first compound 1.265 µM) of 0.47, a relative viability (H3255; first compound 4 µM) of 0.713 and a relative viability (201T; first compound 0.04 µM) of 1.08. The relative viability (201T; first compound 0.1265 µM) was 1.11, the relative viability (201T; first compound 0.4 µM) was 1.11 and the relative viability (201T; first compound 1.265 µM) was 1.08. It also gave a relative viability (201T; first compound 4 µM) of 1.13, a relative viability (HCC-78; first compound 0.04 µM) of 0.391 and a relative viability (HCC-78; first compound 0.1265 µM) of 0.493. For the same molecule, the relative viability (HCC-78; first compound 0.4 µM) was 0.474, the relative viability (HCC-78; first compound 1.265 µM) was 0.495 and the relative viability (HCC-78; first compound 4 µM) was 0.571. For the same molecule, the relative viability (NCI-H647; first compound 0.04 µM) was 1.05, the relative viability (NCI-H647; first compound 0.1265 µM) was 0.971 and the relative viability (NCI-H647; first compound 0.4 µM) was 1.07. It also gave a relative viability (NCI-H647; first compound 1.265 µM) of 0.943, a relative viability (NCI-H647; first compound 4 µM) of 1.06 and a relative viability (COR-L 105; first compound 0.04 µM) of 0.941. For the same molecule, the relative viability (COR-L 105; first compound 0.1265 µM) was 0.783, the relative viability (COR-L 105; first compound 0.4 µM) was 0.931 and the relative viability (COR-L 105; first compound 1.265 µM) was 0.713. It also gave a relative viability (COR-L 105; first compound 4 µM) of 0.651, a relative viability (NCI-H2405; first compound 0.04 µM) of 1 and a relative viability (NCI-H2405; first compound 0.1265 µM) of 1.03. For the same molecule, the relative viability (NCI-H2405; first compound 0.4 µM) was 0.76, the relative viability (NCI-H2405; first compound 1.265 µM) was 0.957 and the relative viability (NCI-H2405; first compound 4 µM) was 0.939. The relative viability (NCI-H2347; first compound 0.1265 µM) was 0.898, the relative viability (NCI-H2347; first compound 0.4 µM) was 0.855 and the relative viability (NCI-H2347; first compound 1.265 µM) was 0.973. For the same molecule, the relative viability (NCI-H2347; first compound 4 µM) was 0.865, the relative viability (NCI-H1666; first compound 0.04 µM) was 0.795 and the relative viability (NCI-H1666; first compound 0.1265 µM) was 0.701. For the same molecule, the relative viability (NCI-H1666; first compound 0.4 µM) was 0.851, the relative viability (NCI-H1666; first compound 1.265 µM) was 0.67 and the relative viability (NCI-H1666; first compound 4 µM) was 0.733. The relative viability (NCI-H2126; first compound 0.04 µM) was 1.06, the relative viability (NCI-H2126; first compound 0.1265 µM) was 1.14 and the relative viability (NCI-H2126; first compound 0.4 µM) was 1.17. For the same molecule, the relative viability (NCI-H2126; first compound 1.265 µM) was 1.1, the relative viability (NCI-H2126; first compound 4 µM) was 1.13 and the relative viability (ChaGo-K-1; first compound 0.04 µM) was 0.936. The relative viability (ChaGo-K-1; first compound 0.1265 µM) was 0.938, the relative viability (ChaGo-K-1; first compound 1.265 µM) was 0.991 and the relative viability (ChaGo-K-1; first compound 4 µM) was 1.03. It also gave a relative viability (NCI-H1915; first compound 0.04 µM) of 0.949, a relative viability (NCI-H1915; first compound 0.1265 µM) of 0.923 and a relative viability (NCI-H1915; first compound 0.4 µM) of 0.993. The relative viability (NCI-H1915; first compound 1.265 µM) was 0.936, the relative viability (NCI-H1915; first compound 4 µM) was 0.987 and the relative viability (HCC-827; first compound 0.04 µM) was 1.04. The relative viability (HCC-827; first compound 0.1265 µM) was 0.877, the relative viability (HCC-827; first compound 0.4 µM) was 1.05 and the relative viability (HCC-827; first compound 1.265 µM) was 1.12. It also gave a relative viability (HCC-827; first compound 4 µM) of 1.03, a relative viability (NCI-H520; first compound 0.04 µM) of 0.841 and a relative viability (NCI-H520; first compound 0.1265 µM) of 0.573. For the same molecule, the relative viability (NCI-H520; first compound 0.4 µM) was 0.677, the relative viability (NCI-H520; first compound 1.265 µM) was 0.547 and the relative viability (NCI-H520; first compound 4 µM) was 0.702. For the same molecule, the relative viability (PC-14; first compound 0.04 µM) was 1.02, the relative viability (PC-14; first compound 0.1265 µM) was 0.849 and the relative viability (PC-14; first compound 0.4 µM) was 0.969. For the same molecule, the relative viability (PC-14; first compound 1.265 µM) was 0.852, the relative viability (PC-14; first compound 4 µM) was 0.828 and the relative viability (NCI-H661; first compound 0.04 µM) was 0.801. For the same molecule, the relative viability (NCI-H661; first compound 0.1265 µM) was 0.71, the relative viability (NCI-H661; first compound 0.4 µM) was 0.882 and the relative viability (NCI-H661; first compound 1.265 µM) was 0.764. For the same molecule, the relative viability (NCI-H661; first compound 4 µM) was 0.816.

From the supplement of paper PMC10307832
